The text below walks through data of ChEMBL document CHEMBL1124324, “Rational design of enzyme inhibitors: multisubstrate analogue inhibitors” (J Med Chem, 1989).

SMILES strings stand for the structures.

In this assay the target is Thymidylate synthase (Homo sapiens, UniProt P04818). Briefly: Inhibition of compound against thymidylate synthetase.
Chain of Thymidylate synthase (P04818 whole entry): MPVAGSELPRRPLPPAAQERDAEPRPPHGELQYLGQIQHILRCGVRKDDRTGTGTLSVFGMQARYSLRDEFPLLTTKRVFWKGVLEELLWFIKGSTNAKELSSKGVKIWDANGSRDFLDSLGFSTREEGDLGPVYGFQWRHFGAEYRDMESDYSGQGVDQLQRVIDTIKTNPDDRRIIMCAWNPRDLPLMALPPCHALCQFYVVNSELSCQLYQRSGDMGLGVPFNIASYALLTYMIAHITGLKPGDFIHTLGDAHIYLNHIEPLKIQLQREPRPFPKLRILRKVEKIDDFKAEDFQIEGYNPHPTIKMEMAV
`CN(CC1CNc2nc(N)[nH]c(=O)c2N1Cc1c[nH]c(=O)[nH]c1=O)c1ccc(C(=O)NC(CCC(=O)O)C(=O)O)cc1` (stereo not drawn) gave a Ki of 0.75 µM. Turning to `NC1=NC(=O)C2C(=N1)CCC(CNc1ccc(C(=O)NC(CCC(=O)O)C(=O)O)cc1)N2Cc1cn([C@H]2C[C@H](O)[C@@H](COP(=O)(O)O)O2)c(=O)[nH]c1=O` (stereo partly drawn), the affinity, expressed as Ki, was 0.03 µM. In the case of `CN1CCN(Cc2cn([C@H]3C[C@H](O)[C@@H](COP(=O)(O)O)O3)c(=O)[nH]c2=O)c2ccccc21` it was 0.06 µM.
